Here are results for three compounds from patent publication US20110020517A1, “TASTE MODIFYING PRODUCT” (priority 2008, published 2011).

The conditions of test [1]: prior art, U.S. Pat. No. 5,298,486 column 2 lines 24 to 33; cited from earlier work.
Test [2] is described as follows: Evaluation for umami/kokumi taste and mouthfeel by a team of 8 trained panelists, in 0.3% aqueous NaCl solution. Conditions: 10 ppm in 0.3% aqueous NaCl solution. The procedure:
Liquid 2-(3-phenylpropyl)pyridine was obtained from R.C. Treatt & Co Ltd, UK (reference SA362100/2). It was then diluted into propylene glycol solvent to provide a 10% solution of the 2-(3-phenylpropyl)pyridine, the resulting solution then being added to a 0.3% aqueous NaCl solution to provide a concentration of 2-(3-phenylpropyl)pyridine of 10 ppm.
The sample was evaluated for umami/kokumi taste and mouthfeel by a team of 8 trained panelists.

On to `CCCCCCCc1cccnc1` [3-heptylpyridine], for which, in test [1], the flavor note entry is “fatty, metallic and fishy”. Turning to `c1ccc(CCCc2ccccn2)cc1` [2-(3-phenylpropyl)pyridine], in test [2], the “Description: Mouthfeel” value is reported as “Mouthfeel: sweet,” and the “Description: Taste” value is given as “Taste: brown, fatty,”. In test [2] (scale of 0 to 10, 0 = no Kokumi/Umami effect, 10 = very intense effect), this compound gave a Kokumi/Umami taste intensity of 7. In the case of `CCCCCCc1cccnc1` [3-hexylpyridine], the flavor note entry in test [1] is “fruity”.
